Here are results for one molecule from patent US20210246140A1, “MODULATORS OF METABOTROPIC GLUTAMATE RECEPTOR 2” (The General Hospital Corporation, priority 2020, published 2021).

Each structure is given as a SMILES string. Where only a bound is given, the exact number is not on record here.

For data set [1], the system named is other mGlu receptors (mGluR1, mGluR3, mGluR4, mGluR5, mGluR6, mGluR8). Put plainly: Selectivity among mGluR subtypes (Ca2+ mobilization assay and cAMP assay). In kind it is cell-based. The settings on record: mGluR1 and mGluR5 by Ca2+ mobilization; mGluR3, 4, 6, 8 by cAMP assay. As for the experimental part: The Gq coupled receptors (mGluR1 and mGluR5) were tested using Ca^2+ mobilization assay. mGluR1 stable cell lines were plated into poly-L-lysine (PLL) coated 384-well black clear bottom cell culture plates with complete Basal Medium Eagle (BME) buffer, which was composed of 10% dialyzed FBS, penicillin G (100 units/mL), streptomycin (100 μg/mL) with tetracycline (1 μg/mL) at density of 20,000 cells in 40 μl per well for overnight. On the other hand, HEK-293 Cells transiently transfected using the calcium phosphate method with cDNA encoding mGluR5 for 40 h were plated into the plate with complete BME at density of 20,000 cells in 40 μL per well for 8 h. mGluR1 stable cells or cells transiently expressing mGluR5 were incubated with 20 μL of the calcium dye (FLIPR Calcium 4 Assay Kit; Molecular Devices) diluted in the assay buffer (1×FIBSS, 2.5 mM probenecid, and 20 mM HEPES, pH 7.4) for 45 min at 37° C. and 15 min at room temperature. To measure agonist activity of receptors, the drug plates were prepared with different concentrations of test or reference compound at 3 times the desired final concentration. […] Once loaded in FLIPR (Molecular Devices), basal fluorescence was measured for 10 s, then 10 μL of test or reference compounds were added, followed by continued fluorescence measurement for an additional 120 s. […]
On the technique in general: A change in cytosolic calcium serves as a functional read-out for many receptors and channels.

The nature of data set [2]: Plasma protein binding assay (equilibrium dialysis, RED device). In kind it is in vitro ADME. The settings on record: rat plasma. As for the experimental part:
Disposable RED device inserts (product 90006) were from Thermos Scientific (Waltham, Mass.). Each insert was made of two side-by-side chambers separated by a vertical cylinder of dialysis membrane (MWCO 8,000) validated for minimal non-specific binding. A stock solution of the test compound in DMSO was spiked into the rat plasma to reach a concentration of 10 μM. 400 μL of sample solution was placed into the sample chamber of the RED device, and 600 μL of phosphate-buffered saline (PBS) was added to the buffer chamber of the RED device. Samples were prepared in triplicates. The plate was covered with aluminum sealing cover and incubated at 37° C. on an orbital shaker at approximately 200 rpm for 5 h. After incubation, 300 μL of post-dialysis samples from the buffer and sample chambers were transferred to different microcentrifuge tubes. To the buffer sample was added 300 μL of plasma, and an equal volume of buffer was added to the collected plasma sample. 600 μL of cold acetonitrile was added to the samples, and the samples were vortexed and incubated for 30 min on ice and then were centrifuged at 14000 rpm for 10 min. Supernatant was transferred to vial for HPLC analysis (XTerra™ MS C18 5μ, 2.1×250 mm column; Gradient elution from 5% to 90% B in 30 min; 0.1 M ammonium formate in water (A) and acetonitrile (B); UV 254 nm; 100 μL of injection volume). The percentage of the test bound compound was calculated as % Free=(Concentration in buffer chamber/Concentration in plasma chamber)×100%; % Bound=100%−% Free (FIG. 6).
The experimental lipophilicity was measured by using liquid-liquid partition between n-octanol and water (“shake-flask method”) [see ref. 54]. […] The plasma protein binding comprises compounds' binding to albumin, α1-acid glycoprotein and lipoproteins once delivered to the bloodstream. This property was evaluated for compounds 1 and 2 by equilibrium dialysis [see ref. 56], where two chambers were separated by a dialysis membrane (MWCO 8 kD). The plasma protein bindings of 1 and 2 are 87.2% and 88.7%, respectively (see FIGS. 20 and 6). Therefore, the high plasma free fraction of compounds 1 and 2 (>10%) would allow enough free drug concentration in blood stream to reach the brain targets.

For the molecule `COc1cc(C(F)(F)F)ccc1C1CCN(Cc2nc3ncccc3n2C)CC1` [Compound 1], the “selectivity against other mGlu receptor subtypes” value in data set [1] is on record as > 100 fold. In data set [2] (equilibrium dialysis, 10 μM), this molecule registered a plasma protein binding of 87.2%. Moreover, in data set [2] (read-out: plasma free fraction), the fraction unbound at 5 h, 10 μM is > 0.1.
